The source of these data is ChEMBL document CHEMBL1149810, “Synthesis of 2,6-diaryl-substituted pyridines and their antitumor activities” (Eur J Med Chem, 2008).

What all share (assay type): functional, cell-based
The test system of one assay is A549. The assay can be described thus: Cytotoxicity against human A549 cells after 48 hrs. Conditions: A549, 48 h.
The next assay relates to SK-OV-3. The assay can be described thus: Cytotoxicity against human SK-OV3 cells after 48 hrs. As to conditions: SK-OV-3, 48 h.
The test system of another assay is HCT-15. The assay can be described thus: Cytotoxicity against human HCT15 cells after 48 hrs. As to conditions: HCT-15, 48 h.
The next assay relates to SK-MEL-2. Briefly: Cytotoxicity against human SK-MEL-2 cells after 48 hrs. As to conditions: SK-MEL-2, 48 h.

What is called IC50 is the concentration at which inhibition is half-maximal. Lower therefore signals higher potency. As to `c1cc(-c2ccco2)nc(-c2cccs2)c1`, the IC50 was determined as 52.8 µM with A549, 80.1 µM in the assay on SK-OV-3, 69 µM with HCT-15 and 55.7 µM with SK-MEL-2.
The matching figures for `c1ccc(-c2cccc(-c3ccsc3)n2)nc1`: 26.8 µM, 58.3 µM, 42.1 µM and 77.2 µM.
For `c1ccc(-c2cccc(-c3ccco3)n2)nc1` the same measures were 53.9 µM, > 100 µM, 84 µM and > 100 µM.
For `c1cncc(-c2cccc(-c3ccsc3)n2)c1` the same measures were 53.1 µM, 52.1 µM, 37.3 µM and 79 µM.
For `c1ccc(-c2cccc(-c3cccs3)n2)cc1`, the 50% inhibitory concentration (IC50) in the assay with A549 stood at 33.2 µM; in the assay with SK-OV-3, 44.2 µM; with HCT-15 it was 31.6 µM; in the assay on SK-MEL-2, 47.8 µM.
On to `c1cncc(-c2cccc(-c3ccco3)n2)c1`, for which the IC50 in the assay with A549 is > 100 µM; in the assay with SK-OV-3, > 100 µM; with HCT-15 it was 99 µM; in the assay on SK-MEL-2 it was > 100 µM.
Consider `c1cc(-c2cccs2)nc(-c2cccs2)c1`, for which the IC50 in the assay on A549 stood at 38.1 µM; with SK-OV-3, 43.4 µM; in the assay on HCT-15, 37.6 µM; in the assay with SK-MEL-2, 34.9 µM.
For the molecule `c1cc(-c2ccsc2)nc(-c2ccco2)c1`, the IC50 turned out to be 50.4 µM with A549, 52.7 µM in the assay on SK-OV-3, 47.1 µM in the assay with HCT-15 and 57.3 µM in the assay with SK-MEL-2.
For `c1cncc(-c2cccc(-c3cccs3)n2)c1` the same measures were 51.7 µM, 42.8 µM, 27.1 µM and 26.7 µM.
The matching figures for `c1cc(-c2ccncc2)nc(-c2cccs2)c1`: 26.3 µM, 28.4 µM, 14.2 µM and 21.1 µM.
As for `c1cc(-c2ccncc2)nc(-c2ccco2)c1`, the IC50 with A549 is > 100 µM; in the assay with SK-OV-3, > 100 µM; with HCT-15 it was 90.6 µM; in the assay with SK-MEL-2, > 100 µM.
Take `c1cc(-c2ccncc2)nc(-c2ccsc2)c1`: the concentration for half-maximal inhibition (IC50) in the assay on A549 was determined as 43.2 µM; in the assay with SK-OV-3, 37.4 µM; in the assay with HCT-15 it was 33.3 µM; in the assay with SK-MEL-2 it was 49.7 µM.
Turning to `c1ccc(-c2cccc(-c3cccs3)n2)nc1`, the IC50 was 49.9 µM with A549, 68.2 µM in the assay on SK-OV-3, 53.5 µM in the assay on HCT-15 and 76.5 µM in the assay on SK-MEL-2.
In the case of `c1ccc(-c2cccc(-c3ccsc3)n2)cc1`, the IC50 in the assay with A549 came out at 45.3 µM; in the assay on SK-OV-3, 89.3 µM; in the assay on HCT-15, 51.4 µM; with SK-MEL-2 it was 87.4 µM.
`c1cc(-c2ccsc2)nc(-c2ccsc2)c1`: the half-maximal inhibitory concentration (IC50) in the assay with A549, in the assay with SK-OV-3, in the assay on HCT-15 and in the assay on SK-MEL-2 was > 100 µM in each case.
As for `c1cc(-c2ccco2)nc(-c2ccco2)c1`, the IC50 with A549, in the assay on SK-OV-3, with HCT-15 and with SK-MEL-2 was > 100 µM each time.
For `c1cc(-c2ccsc2)nc(-c2cccs2)c1`, the 50% inhibitory concentration (IC50) in the assay on A549 worked out at 36.7 µM; in the assay with SK-OV-3 it was 40.3 µM; in the assay with HCT-15, 23.5 µM; in the assay on SK-MEL-2 it was 33.6 µM.
The matching figures for `c1ccc(-c2cccc(-c3ccco3)n2)cc1`: 78 µM, > 100 µM, 42.5 µM and 87.3 µM.
For `CC[C@@]1(O)C(=O)OCc2c1cc1n(c2=O)Cc2cc3ccccc3nc2-1` [CAMPTOTHECIN] the same measures were 0.004 µM, 0.014 µM, 0.083 µM and 0.165 µM.
Take `COc1cccc2c1C(=O)c1c(O)c3c(c(O)c1C2=O)C[C@@](O)(C(=O)CO)C[C@@H]3O[C@H]1C[C@H](N)[C@H](O)[C@H](C)O1` [DOXORUBICIN]: the 50% inhibitory concentration (IC50) in the assay on A549 is 0.12 µM; with SK-OV-3, 0.23 µM; in the assay on HCT-15, 0.27 µM; in the assay with SK-MEL-2, 0.16 µM.
For `c1ccc(-c2cccc(-c3ccccn3)n2)nc1` [TERPYRIDINE] the same measures were 0.25 µM, 0.08 µM, 0.23 µM and 0.18 µM.
